Results published in ChEMBL document CHEMBL5291721, “A preclinical secondary pharmacology resource illuminates target-adverse drug reaction associations of marketed drugs” (Nat Commun, 2023).

Key:
[1] = molecular target: Sodium-dependent serotonin transporter (Homo sapiens, UniProt P31645)
[2] = molecular target: Voltage-dependent L-type calcium channel subunit alpha-1C (Rattus norvegicus, UniProt P22002); type: functional
Mu-type opioid receptor = Mu-type opioid receptor (Homo sapiens, UniProt P35372)
[3] = molecular target: 3',5'-cyclic-AMP phosphodiesterase 4A (Homo sapiens, UniProt P27815); type: functional
Estrogen receptor = molecular target: T1, Estrogen receptor (Homo sapiens, UniProt P03372)
T1 sequence (P03372 whole entry): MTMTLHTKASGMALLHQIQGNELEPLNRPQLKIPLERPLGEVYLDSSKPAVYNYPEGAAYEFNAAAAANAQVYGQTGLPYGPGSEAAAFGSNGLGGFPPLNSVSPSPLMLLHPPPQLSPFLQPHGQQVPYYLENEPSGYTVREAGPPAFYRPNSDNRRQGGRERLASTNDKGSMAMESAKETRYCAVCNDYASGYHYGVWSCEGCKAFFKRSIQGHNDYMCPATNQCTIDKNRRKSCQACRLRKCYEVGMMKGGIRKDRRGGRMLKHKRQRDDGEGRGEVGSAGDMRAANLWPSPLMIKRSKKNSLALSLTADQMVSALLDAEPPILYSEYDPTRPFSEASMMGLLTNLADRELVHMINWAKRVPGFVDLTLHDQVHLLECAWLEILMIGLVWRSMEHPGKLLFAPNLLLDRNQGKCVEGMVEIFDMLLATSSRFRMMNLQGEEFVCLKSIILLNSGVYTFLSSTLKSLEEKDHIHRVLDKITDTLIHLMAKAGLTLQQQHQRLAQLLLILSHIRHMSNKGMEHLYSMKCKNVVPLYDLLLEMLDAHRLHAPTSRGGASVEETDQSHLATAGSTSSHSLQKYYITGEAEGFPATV

[4] = molecular target: T2, Alpha-2B adrenergic receptor (Homo sapiens, UniProt P18089)
T2 sequence (P18089 whole entry): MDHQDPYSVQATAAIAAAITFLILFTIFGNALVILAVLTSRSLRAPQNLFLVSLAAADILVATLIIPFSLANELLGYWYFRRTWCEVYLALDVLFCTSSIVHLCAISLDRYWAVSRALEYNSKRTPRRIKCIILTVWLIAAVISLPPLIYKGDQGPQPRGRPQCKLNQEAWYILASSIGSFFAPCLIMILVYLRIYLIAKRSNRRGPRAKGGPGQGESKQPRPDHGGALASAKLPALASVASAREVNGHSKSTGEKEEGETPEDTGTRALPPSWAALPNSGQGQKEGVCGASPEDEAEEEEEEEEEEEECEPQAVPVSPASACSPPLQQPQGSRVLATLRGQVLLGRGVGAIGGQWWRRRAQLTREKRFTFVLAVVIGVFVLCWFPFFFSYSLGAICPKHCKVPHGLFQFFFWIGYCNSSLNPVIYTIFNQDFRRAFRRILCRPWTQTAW

[5] = molecular target: T3, Alpha-1A adrenergic receptor (Homo sapiens, UniProt P35348)
T3 sequence (P35348 whole entry): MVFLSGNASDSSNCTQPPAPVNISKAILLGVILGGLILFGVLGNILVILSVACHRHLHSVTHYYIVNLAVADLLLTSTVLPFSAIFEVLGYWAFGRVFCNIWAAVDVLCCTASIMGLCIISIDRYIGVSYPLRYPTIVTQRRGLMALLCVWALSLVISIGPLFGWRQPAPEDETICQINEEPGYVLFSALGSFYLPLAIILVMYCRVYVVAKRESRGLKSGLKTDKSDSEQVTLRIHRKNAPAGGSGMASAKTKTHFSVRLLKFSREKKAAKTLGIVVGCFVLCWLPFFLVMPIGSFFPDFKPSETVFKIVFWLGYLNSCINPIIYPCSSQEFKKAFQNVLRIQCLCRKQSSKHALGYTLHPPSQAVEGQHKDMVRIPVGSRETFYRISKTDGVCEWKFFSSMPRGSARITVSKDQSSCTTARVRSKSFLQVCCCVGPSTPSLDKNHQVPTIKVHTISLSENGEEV

[6] = molecular target: T4, Muscarinic acetylcholine receptor M1 (Homo sapiens, UniProt P11229); type: functional
T4 sequence (P11229 whole entry): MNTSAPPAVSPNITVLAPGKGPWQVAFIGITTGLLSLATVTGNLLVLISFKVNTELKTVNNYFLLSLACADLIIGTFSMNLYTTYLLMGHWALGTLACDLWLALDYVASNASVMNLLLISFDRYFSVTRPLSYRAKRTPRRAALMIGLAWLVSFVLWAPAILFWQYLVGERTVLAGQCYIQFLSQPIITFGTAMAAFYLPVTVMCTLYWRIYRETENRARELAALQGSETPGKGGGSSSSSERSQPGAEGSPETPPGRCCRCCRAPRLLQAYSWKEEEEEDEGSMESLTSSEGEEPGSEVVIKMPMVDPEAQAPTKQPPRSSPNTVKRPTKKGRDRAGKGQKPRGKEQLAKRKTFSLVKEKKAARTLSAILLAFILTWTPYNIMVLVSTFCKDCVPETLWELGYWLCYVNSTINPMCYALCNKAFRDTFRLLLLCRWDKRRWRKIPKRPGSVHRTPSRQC

Cannabinoid receptor 1 = Cannabinoid receptor 1 (Homo sapiens, UniProt P21554); type: functional, cell-based
[7] = molecular target: T5, Neuropeptide Y receptor type 1 (Homo sapiens, UniProt P25929)
T5 sequence (P25929 whole entry): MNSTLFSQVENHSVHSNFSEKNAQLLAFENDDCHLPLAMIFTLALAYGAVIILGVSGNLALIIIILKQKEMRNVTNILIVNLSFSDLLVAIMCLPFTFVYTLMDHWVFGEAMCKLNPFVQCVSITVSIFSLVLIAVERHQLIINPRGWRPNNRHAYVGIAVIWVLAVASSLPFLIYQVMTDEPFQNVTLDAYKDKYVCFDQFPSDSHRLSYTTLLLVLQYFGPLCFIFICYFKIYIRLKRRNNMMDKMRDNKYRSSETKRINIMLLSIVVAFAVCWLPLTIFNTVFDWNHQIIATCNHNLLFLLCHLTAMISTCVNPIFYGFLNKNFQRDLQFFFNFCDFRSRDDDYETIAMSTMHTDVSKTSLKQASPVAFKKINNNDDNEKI
Further: assay procedure not described here.

Cannabinoid receptor 1, sequence (P21554 whole entry): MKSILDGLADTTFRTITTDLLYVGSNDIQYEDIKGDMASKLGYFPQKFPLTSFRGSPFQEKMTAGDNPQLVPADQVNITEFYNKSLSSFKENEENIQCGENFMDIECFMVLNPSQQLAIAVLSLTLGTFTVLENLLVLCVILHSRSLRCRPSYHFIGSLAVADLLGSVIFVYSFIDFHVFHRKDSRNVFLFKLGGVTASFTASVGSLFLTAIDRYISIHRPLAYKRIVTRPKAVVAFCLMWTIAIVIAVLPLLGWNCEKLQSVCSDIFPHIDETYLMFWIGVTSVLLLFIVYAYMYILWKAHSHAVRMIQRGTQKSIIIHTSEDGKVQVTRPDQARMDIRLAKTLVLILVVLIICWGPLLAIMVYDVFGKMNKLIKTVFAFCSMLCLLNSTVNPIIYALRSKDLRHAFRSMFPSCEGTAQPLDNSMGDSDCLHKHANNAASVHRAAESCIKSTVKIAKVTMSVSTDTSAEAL
Mu-type opioid receptor, sequence (P35372 whole entry): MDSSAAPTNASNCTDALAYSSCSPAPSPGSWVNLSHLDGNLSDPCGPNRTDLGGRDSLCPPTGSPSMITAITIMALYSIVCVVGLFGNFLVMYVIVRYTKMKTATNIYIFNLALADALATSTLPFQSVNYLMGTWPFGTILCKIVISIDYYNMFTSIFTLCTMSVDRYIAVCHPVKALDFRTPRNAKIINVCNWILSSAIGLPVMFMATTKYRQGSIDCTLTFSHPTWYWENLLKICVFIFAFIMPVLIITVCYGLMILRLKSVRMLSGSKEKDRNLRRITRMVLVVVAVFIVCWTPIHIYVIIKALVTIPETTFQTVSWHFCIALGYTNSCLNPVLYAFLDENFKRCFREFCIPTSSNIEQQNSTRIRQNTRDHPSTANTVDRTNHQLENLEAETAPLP
Voltage-dependent L-type calcium channel subunit alpha-1C, sequence (P22002 whole entry): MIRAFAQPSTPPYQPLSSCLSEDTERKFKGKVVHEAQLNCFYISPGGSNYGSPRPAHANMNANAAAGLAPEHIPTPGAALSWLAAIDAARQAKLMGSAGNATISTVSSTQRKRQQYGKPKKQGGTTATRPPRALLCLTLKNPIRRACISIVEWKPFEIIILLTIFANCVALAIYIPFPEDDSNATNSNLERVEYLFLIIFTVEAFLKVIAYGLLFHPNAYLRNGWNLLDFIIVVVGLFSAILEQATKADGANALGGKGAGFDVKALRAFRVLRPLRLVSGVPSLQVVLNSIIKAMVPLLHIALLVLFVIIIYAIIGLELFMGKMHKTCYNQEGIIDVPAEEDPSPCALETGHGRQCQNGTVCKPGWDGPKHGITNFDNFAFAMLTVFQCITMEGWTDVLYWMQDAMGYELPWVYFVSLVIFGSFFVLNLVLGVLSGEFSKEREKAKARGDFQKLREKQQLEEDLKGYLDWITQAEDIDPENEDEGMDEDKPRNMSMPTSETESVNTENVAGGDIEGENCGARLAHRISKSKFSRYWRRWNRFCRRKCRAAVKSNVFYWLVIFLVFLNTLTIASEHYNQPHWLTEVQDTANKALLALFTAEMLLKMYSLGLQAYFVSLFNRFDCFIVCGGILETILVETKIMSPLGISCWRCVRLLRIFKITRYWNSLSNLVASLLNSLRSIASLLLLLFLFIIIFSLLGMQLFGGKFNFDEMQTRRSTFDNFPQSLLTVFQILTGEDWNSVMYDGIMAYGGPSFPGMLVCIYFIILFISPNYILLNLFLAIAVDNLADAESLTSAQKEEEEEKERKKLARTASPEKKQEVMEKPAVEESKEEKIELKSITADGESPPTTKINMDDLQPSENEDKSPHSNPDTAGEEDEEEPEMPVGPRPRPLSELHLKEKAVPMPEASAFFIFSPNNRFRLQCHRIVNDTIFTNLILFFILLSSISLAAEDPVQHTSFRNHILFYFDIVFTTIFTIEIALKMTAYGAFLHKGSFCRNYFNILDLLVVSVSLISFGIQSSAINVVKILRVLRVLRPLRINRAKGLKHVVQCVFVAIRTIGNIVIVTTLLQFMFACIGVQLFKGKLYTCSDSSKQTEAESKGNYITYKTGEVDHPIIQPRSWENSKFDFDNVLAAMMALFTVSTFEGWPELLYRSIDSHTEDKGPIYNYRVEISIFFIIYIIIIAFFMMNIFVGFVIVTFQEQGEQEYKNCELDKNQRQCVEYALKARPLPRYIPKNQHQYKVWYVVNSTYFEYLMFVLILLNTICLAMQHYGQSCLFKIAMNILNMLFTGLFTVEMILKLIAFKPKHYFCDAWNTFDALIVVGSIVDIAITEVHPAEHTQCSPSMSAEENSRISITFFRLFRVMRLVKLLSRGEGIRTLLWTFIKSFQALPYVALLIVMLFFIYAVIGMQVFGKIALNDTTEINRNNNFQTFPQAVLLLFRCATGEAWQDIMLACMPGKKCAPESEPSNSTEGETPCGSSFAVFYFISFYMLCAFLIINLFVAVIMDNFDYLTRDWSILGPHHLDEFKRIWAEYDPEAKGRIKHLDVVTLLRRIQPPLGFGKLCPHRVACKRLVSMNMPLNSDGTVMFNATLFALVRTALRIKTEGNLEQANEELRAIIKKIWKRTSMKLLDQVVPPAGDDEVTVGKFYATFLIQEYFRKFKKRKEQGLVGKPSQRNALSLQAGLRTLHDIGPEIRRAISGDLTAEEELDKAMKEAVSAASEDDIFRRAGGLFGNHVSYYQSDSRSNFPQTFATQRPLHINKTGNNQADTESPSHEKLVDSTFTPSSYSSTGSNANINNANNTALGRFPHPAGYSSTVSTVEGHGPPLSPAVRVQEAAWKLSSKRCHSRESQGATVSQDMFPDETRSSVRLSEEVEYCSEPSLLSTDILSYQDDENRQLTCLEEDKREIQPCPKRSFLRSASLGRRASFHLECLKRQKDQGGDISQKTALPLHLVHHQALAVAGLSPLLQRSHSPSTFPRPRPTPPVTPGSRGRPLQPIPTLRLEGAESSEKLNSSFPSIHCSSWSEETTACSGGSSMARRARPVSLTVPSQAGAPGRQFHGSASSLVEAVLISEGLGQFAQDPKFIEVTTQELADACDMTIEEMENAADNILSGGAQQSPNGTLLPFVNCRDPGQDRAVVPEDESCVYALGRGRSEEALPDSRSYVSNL
3',5'-cyclic-AMP phosphodiesterase 4A, sequence (P27815 whole entry): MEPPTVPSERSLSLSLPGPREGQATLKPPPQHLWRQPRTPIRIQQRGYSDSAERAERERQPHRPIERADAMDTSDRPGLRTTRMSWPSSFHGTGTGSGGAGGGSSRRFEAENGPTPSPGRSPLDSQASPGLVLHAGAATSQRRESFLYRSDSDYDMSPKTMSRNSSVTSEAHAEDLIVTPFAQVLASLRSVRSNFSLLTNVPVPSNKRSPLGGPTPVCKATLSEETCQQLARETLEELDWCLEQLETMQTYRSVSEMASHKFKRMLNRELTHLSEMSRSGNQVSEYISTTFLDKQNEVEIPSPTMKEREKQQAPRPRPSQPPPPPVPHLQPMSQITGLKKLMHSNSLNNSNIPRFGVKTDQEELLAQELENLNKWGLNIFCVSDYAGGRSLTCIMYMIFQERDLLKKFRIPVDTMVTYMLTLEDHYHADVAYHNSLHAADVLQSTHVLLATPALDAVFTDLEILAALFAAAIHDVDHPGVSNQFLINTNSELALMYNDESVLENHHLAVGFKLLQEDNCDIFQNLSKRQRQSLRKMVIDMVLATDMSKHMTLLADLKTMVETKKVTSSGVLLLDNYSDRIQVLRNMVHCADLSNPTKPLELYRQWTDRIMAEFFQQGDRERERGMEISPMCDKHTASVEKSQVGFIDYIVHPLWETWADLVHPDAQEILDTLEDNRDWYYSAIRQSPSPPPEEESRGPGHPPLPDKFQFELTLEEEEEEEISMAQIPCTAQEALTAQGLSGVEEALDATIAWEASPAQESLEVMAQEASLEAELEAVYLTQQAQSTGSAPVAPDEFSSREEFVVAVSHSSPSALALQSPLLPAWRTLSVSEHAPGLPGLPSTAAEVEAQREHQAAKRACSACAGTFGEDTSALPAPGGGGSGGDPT
Sodium-dependent serotonin transporter, sequence (P31645 whole entry): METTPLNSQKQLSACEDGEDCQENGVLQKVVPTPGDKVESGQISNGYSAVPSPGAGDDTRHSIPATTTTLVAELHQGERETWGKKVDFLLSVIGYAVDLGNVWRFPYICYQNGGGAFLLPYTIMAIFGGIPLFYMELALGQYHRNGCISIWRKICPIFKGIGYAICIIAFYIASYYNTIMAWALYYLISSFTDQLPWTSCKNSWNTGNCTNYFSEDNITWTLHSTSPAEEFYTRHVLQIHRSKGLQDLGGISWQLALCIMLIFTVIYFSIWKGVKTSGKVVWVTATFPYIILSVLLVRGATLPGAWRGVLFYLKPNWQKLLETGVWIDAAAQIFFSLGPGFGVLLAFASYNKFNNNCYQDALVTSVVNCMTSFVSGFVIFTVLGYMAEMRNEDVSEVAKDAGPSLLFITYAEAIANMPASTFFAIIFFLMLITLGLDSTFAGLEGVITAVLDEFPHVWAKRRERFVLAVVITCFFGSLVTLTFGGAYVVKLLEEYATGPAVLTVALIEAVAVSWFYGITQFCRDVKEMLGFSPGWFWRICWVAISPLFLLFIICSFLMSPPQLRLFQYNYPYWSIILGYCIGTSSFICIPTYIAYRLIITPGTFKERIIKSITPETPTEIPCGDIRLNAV

**Q.** `CC(C(=O)O)c1ccc(N2CC=CC2)c(Cl)c1` (stereo not given) [PIRPROFEN] was tested. Which AC50 [1] did it give?
**A.** Its AC50 is greater than 30 µM.

**Q.** What about the AC50 [2] of the same compound?
**A.** Its AC50 is greater than 10 µM.

**Q.** And the AC50 (Mu-type opioid receptor)?
**A.** Its AC50 is greater than 30 µM.

**Q.** What about the AC50 [3] of the same compound?
**A.** Its AC50 is greater than 30 µM.

**Q.** What about the AC50 (Estrogen receptor) of the same compound?
**A.** Its AC50 is greater than 30 µM.

**Q.** What about the AC50 [4] of the same compound?
**A.** Its AC50 is greater than 10 µM.

**Q.** What about the AC50 [5] of the same compound?
**A.** Its AC50 is greater than 10 µM.

**Q.** What about the AC50 [6] of the same compound?
**A.** Its AC50 is greater than 10 µM.

**Q.** What about the AC50 (Cannabinoid receptor 1) of the same compound?
**A.** The AC50 was greater than 30 µM.

**Q.** What about the AC50 [7] of the same compound?
**A.** Its AC50 is greater than 30 µM.
